# Results taken from ChEMBL document CHEMBL1811893, “Seco-eremophiladiolides and eremophilane glucosides from Pittocaulon velatum” (J Nat Prod, 2011).
# Calls of active or inactive are those of the source. No cut-off for these calls is given here.
# Tested on: Rattus norvegicus
# Experiment: Antiinflammatory activity in Lewis rat assessed as inhibition of TPA-induced ear edema
# Assay type: functional, organism-based
row,Structure (SMILES),Activity
1,Cc1coc2c1[C@@H](OCC(C)C)[C@]1(C)[C@@H](C)CCC[C@H]1C2=O,inactive
2,C/C(=C\O[C@@H]1O[C@H](CO)[C@@H](O)[C@H](O)[C@H]1O)[C@@H]1C[C@@]2(C)C(=CC1=O)[C@H](O)CC[C@@H]2C,inactive
3,CC1=C([C@H]2OC(=O)[C@@H]3CCC[C@H](C)[C@@]23C)C(=O)OC1,inactive
4,CC1=C([C@@H]2OC(=O)[C@@H]3CCC[C@H](C)[C@]32C)C(=O)OC1,inactive
5,Cc1coc2c1[C@@H](OCC(C)C)[C@]1(C)[C@@H](C)CC[C@H]3O[C@]31C2=O,inactive
6,C/C(=C\O[C@@H]1O[C@H](CO)[C@@H](O)[C@H](O)[C@H]1O)[C@@H]1C[C@@]2(C)C(=CC1=O)CC[C@H](O)[C@@H]2C,inactive
7,C/C(=C\O[C@@H]1O[C@H](CO)[C@@H](O)[C@H](O)[C@H]1O)[C@@H]1C[C@@]2(C)C(=CC1=O)CCC[C@@H]2C,inactive
8,C/C(=C\O[C@@H]1O[C@H](CO)[C@@H](O)[C@H](O)[C@H]1O)[C@@H]1C[C@@]2(C)C(=CC1=O)CC[C@@H](O)[C@@H]2C,inactive
9,C[C@H]1C[C@@H](O)C[C@H]2C(=O)c3occ(CO)c3[C@@H](O)[C@]12C,inactive
